Structures can show the parent of a compound that is named as a salt.
Molecular target: pim-1 kinase (Homo sapiens, UniProt P11309)
Assay: Measurement of pim-1 kinase inhibitory activity (fluorescent substrate peptide, capillary electrophoresis)
Format: biochemical
Conditions: 0.1 μM of each compound, 30 μM ATP, 1.5 μM substrate peptide, room temperature 2 hours
Protocol: Measurement of Pim-1 Kinase Inhibitory Activity
The result of the reaction was determined by quantifying the substrate and the phosphorylated reaction product separated by capillary electrophoresis based on difference in charges of the substances (EZ Reader II, Caliper Life Sciences, was used).

pim-1 kinase, sequence (P11309 whole entry): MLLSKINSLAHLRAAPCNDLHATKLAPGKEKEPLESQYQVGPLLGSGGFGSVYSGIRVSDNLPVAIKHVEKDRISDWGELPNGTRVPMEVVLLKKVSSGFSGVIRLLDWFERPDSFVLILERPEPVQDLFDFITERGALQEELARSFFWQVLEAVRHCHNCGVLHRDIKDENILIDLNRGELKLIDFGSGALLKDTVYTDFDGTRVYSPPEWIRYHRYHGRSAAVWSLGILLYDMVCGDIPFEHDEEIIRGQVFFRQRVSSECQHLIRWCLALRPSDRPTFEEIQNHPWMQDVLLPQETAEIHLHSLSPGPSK

| SMILES | inhibition at 0.1 µM (Table 1) [%] | inhibition at 0.1 µM (Table 2) [%] |
| --- | --- | --- |
| Cc1ccc2c(/C=C3\Oc4c(cc(Cl)c(O)c4CN4CCNCC4)C3=O)c[nH]c2n1 [Compound A51, (Z)-5-Chloro-6-hydroxy-2-[(6-methyl-1H-pyrrolo[2,3-b]pyridin-3-yl)methylene]-7-(piperazin-1-ylmethyl)benzofuran-3(2H)-one trihydrochloride] | 94 |  |
| O=C1/C(=C/c2n[nH]c3ccc(Cl)cc23)Oc2c1cc(Cl)c(O)c2CN1CCNCC1 [Compound B15, (Z)-5-Chloro-2-[(5-chloro-1H-indazol-3-yl)methylene]-6-hydroxy-7-(piperazin-1-ylmethyl)benzofuran-3(2H)-one] |  | 90 |
| O=C1/C(=C/c2n[nH]c3ccc(F)cc23)Oc2c1cc(Cl)c(O)c2CN1CCNCC1 [Compound B14, (Z)-5-Chloro-2-[(5-fluoro-1H-indazol-3-yl)methylene]-6-hydroxy-7-(piperazin-1-ylmethyl)benzofuran-3(2H)-one] |  | 80 |
| O=C1/C(=C/c2n[nH]c3ccccc23)Oc2c1ccc(O)c2CN1CCOCC1 [Compound B5, (Z)-2-[(1H-Indazol-3-yl)methylene]-6-hydroxy-7-(morpholinomethyl)benzofuran-3(2H)-one] |  | 22 |
| O=C1/C(=C/c2n[nH]c3ccc(OC(F)(F)F)cc23)Oc2c1ccc(O)c2CN1CCNCC1 [Compound B12, (Z)-6-Hydroxy-7-(piperazin-1-ylmethyl)-2-{[5-(trifluoromethoxy)-1H-indazol-3-yl]methylene}benzofuran-3(2H)-one] |  | 90 |
| O=C1/C(=C/c2n[nH]c3ccccc23)Oc2c1ccc(O)c2CN1CCNCC1 [Compound B1, (Z)-2-[(1H-Indazol-3-yl)methylene]-6-hydroxy-7-(piperazin-1-ylmethyl)benzofuran-3(2H)-one] |  | 88 |
| COC(=O)c1ccc2c(/C=C3\Oc4c(ccc(O)c4CN4CCNCC4)C3=O)c[nH]c2c1 [Compound A23, Methyl (Z)-3-{[6-hydroxy-3-oxo-7-(piperazin-1-ylmethyl)benzofuran-2(3H)-ylidene]methyl}-1H-indole-6-carboxylate] | 56 |  |
| O=C1/C(=C/c2c[nH]c3ncccc23)Oc2c1ccc(O)c2CN1CCNCC1 [Compound A42, (Z)-2-[(1H-Pyrrolo[2,3-b]pyridin-3-yl)methylene]-6-hydroxy-7-(piperazin-1-ylmethyl)benzofuran-3(2H)-one trihydrochloride] | 96 |  |
| O=C1/C(=C/c2n[nH]c3ccccc23)Oc2c1cc(Cl)c(O)c2CN1CCNCC1 [Compound B13, (Z)-2-[(1H-Indazol-3-yl)methylene]-5-chloro-6-hydroxy-7-(piperazin-1-ylmethyl)benzofuran-3(2H)-one] |  | 88 |
| COc1ccc2[nH]nc(/C=C3\Oc4c(ccc(O)c4CN4CCNCC4)C3=O)c2c1 [Compound B11, (Z)-6-Hydroxy-7-(piperazin-1-ylmethyl)-2-[(5-methoxy-1H-indazol-3-yl)methylene]benzofuran-3(2H)-one] |  | 87 |
| CC(=O)NCc1ccc2[nH]cc(/C=C3\Oc4c(ccc(O)c4CN4CCNCC4)C3=O)c2c1 [Compound A20, (Z)—N-[(3-{[6-Hydroxy-3-oxo-7-(piperazin-1-ylmethyl)benzofuran-2(3H)-ylidene]methyl}-1H-indol-5-yl)methyl]acetamide dihydrochloride] | 62 |  |
| CN1CCN(Cc2c(O)ccc3c2O/C(=C\c2c[nH]c4ncccc24)C3=O)CC1 [Compound A43, (Z)-2-[(1H-Pyrrolo[2,3-b]pyridin-3-yl)methylene]-6-hydroxy-7-[(4-methylpiperazin-1-yl)methyl]benzofuran-3(2H)-one] | 56 |  |
| O=C1/C(=C/c2n[nH]c3ccc(Cl)cc23)Oc2c1ccc(O)c2CN1CCNCC1 [Compound B9, (Z)-6-Hydroxy-7-(piperazin-1-ylmethyl)-2-[(5-chloro-1H-indazol-3-yl)methylene]benzofuran-3(2H)-one] |  | 93 |
